Experiment [1] has as its target T1, Tyrosine-protein kinase Mer (Homo sapiens) (UniProt Q12866).
T1 sequence (whole entry): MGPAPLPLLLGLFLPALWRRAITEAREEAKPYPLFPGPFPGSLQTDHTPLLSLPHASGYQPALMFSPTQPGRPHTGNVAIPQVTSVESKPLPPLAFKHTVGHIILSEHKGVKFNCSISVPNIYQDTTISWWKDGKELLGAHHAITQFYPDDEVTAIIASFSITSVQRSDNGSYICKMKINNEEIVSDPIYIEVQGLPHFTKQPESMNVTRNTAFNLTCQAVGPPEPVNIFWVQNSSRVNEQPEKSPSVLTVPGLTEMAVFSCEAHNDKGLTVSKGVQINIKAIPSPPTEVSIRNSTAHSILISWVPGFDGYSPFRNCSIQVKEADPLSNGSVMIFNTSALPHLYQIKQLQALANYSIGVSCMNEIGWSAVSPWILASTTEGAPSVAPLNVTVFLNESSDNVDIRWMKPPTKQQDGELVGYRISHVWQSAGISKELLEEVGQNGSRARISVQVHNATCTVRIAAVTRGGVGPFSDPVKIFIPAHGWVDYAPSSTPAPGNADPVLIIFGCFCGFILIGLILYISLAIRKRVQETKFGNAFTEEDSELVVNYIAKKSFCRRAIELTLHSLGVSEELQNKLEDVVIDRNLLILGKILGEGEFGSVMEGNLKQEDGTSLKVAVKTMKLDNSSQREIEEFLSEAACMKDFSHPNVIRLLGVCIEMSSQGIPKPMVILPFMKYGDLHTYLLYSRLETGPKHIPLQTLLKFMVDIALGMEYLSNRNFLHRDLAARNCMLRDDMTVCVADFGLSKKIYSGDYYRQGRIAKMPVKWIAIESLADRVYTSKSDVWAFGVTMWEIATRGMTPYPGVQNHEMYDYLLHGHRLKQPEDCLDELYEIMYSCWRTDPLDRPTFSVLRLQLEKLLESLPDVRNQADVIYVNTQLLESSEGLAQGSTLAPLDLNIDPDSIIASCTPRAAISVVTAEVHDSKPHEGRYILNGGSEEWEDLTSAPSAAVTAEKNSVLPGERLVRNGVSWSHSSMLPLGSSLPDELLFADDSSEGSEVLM
Conditions: at 10 µM.

Experiment [2] deals with T2, Inhibitor of nuclear factor kappa-B kinase subunit epsilon (Homo sapiens) (UniProt Q14164).
T2 sequence (whole entry): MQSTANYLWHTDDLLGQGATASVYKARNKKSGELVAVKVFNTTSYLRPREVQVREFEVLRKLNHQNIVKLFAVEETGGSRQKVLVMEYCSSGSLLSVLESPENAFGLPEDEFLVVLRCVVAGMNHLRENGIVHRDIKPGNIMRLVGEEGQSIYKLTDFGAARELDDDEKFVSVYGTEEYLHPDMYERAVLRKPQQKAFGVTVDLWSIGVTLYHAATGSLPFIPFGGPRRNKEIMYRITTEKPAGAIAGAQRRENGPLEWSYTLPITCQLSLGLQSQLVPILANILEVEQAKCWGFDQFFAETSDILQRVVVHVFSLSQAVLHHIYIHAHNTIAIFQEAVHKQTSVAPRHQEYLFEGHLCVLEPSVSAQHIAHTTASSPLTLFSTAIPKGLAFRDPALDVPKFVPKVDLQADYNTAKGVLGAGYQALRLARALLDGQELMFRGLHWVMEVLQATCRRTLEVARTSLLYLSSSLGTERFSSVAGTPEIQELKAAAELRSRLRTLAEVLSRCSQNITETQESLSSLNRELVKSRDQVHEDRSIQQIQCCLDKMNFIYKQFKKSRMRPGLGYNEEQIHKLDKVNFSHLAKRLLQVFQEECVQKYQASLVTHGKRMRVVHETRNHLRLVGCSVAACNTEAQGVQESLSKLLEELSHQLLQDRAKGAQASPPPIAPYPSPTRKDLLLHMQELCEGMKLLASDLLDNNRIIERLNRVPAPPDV
The following applies: at 1 µM.

Experiment [3] has as its target T3, Serine/threonine-protein kinase TBK1 (Homo sapiens) (UniProt Q9UHD2).
T3 sequence (whole entry): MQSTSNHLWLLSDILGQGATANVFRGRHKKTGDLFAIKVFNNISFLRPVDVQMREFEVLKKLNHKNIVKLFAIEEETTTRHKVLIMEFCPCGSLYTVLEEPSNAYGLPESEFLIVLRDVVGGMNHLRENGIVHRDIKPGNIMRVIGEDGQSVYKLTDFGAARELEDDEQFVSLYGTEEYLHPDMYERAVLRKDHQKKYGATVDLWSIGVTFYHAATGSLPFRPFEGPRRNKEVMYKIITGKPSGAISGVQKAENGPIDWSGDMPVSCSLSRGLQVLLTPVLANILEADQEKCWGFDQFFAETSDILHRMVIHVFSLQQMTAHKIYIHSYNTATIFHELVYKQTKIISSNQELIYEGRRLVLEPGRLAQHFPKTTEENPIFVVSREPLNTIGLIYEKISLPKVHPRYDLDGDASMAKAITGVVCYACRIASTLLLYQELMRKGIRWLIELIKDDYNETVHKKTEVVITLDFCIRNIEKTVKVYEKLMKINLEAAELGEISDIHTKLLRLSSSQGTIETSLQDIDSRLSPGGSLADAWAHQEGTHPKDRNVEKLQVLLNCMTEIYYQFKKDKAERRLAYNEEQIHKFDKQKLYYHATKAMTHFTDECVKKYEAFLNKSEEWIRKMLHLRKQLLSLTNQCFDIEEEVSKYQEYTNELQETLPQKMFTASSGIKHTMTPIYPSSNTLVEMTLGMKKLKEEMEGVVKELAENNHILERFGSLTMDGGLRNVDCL
The following applies: at 1 µM.

Experiment [4] has as its target T4, Inhibitor of nuclear factor kappa-B kinase subunit beta (Homo sapiens) (UniProt O14920).
T4 sequence (whole entry): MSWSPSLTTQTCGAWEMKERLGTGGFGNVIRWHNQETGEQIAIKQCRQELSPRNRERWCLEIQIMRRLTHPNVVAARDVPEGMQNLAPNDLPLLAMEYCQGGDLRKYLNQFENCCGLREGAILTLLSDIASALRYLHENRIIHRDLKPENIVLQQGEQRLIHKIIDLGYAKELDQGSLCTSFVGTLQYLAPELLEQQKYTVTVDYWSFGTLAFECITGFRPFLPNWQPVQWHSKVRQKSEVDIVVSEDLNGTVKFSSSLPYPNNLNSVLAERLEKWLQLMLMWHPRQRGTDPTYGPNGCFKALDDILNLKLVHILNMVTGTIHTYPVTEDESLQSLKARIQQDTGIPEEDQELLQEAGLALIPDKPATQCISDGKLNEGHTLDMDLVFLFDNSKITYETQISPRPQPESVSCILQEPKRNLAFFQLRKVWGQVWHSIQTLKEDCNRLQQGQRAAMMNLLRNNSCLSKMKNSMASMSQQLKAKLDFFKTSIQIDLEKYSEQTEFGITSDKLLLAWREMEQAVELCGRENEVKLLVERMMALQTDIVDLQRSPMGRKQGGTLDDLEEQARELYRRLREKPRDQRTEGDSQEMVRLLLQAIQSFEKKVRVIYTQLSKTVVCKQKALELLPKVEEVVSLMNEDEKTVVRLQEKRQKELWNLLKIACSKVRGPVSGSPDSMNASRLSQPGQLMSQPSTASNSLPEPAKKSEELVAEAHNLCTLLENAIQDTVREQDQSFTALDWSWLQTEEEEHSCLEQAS
Conditions: at 1 µM.

The target of experiment [5] is T5, Inhibitor of nuclear factor kappa-B kinase subunit alpha (Homo sapiens) (UniProt O15111).
T5 sequence (whole entry): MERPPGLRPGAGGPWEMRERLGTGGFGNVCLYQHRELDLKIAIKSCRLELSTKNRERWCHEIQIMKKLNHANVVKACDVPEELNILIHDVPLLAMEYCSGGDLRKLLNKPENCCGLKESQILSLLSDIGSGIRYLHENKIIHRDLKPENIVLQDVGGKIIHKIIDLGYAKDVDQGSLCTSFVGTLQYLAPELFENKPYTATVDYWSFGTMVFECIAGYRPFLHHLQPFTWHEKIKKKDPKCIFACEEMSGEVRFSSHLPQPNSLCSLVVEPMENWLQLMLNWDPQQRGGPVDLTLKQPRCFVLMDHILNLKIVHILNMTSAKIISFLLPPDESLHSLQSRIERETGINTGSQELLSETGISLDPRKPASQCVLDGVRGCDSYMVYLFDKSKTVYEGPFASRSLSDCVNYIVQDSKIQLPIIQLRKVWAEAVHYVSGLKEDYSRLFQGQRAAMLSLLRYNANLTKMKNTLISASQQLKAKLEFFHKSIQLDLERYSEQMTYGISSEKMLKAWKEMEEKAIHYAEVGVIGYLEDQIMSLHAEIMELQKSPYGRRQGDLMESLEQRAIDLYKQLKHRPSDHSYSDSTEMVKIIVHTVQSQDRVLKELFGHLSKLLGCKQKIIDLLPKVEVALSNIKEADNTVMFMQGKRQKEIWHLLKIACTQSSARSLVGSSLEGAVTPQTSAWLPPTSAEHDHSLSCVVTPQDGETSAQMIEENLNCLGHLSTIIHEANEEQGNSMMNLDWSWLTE
The following applies: at 1 µM.

Where “and” joins values, the source holds several entries; their conditions need not be identical. Equal entries are not always repeated.

As usually defined, the inhibition is the relative decrease from the control value, in per cent. As to `CNC(=O)c1cncc(/C=C/c2c(Cl)cccc2Cl)c1`, the inhibition in experiment [1] was 3%; in experiment [2], 0% and 1%; in experiment [3] it was 0% and -1%; in experiment [4], -3% and -2%.

As for `C[C@@H](Oc1cc(-n2cnc3ccc(OC4CCN(C)CC4)cc32)sc1C(N)=O)c1ccccc1Cl`, the inhibition in experiment [1] is -2%; in experiment [2], 1% and 5%; in experiment [3], 7% and 3%; in experiment [4], -1% and -2%.

As for `NC(=O)c1cc(-c2ccc(F)cc2)cc(-c2ccncc2)c1N`, the inhibition in experiment [1] was 22%; in experiment [2], 2% and 0%; in experiment [3], 16% and 21%; in experiment [4], 2% and 1%.

Take `CCn1c(-c2nonc2N)nc2cnc(Oc3cccc(NC(=O)c4ccc(OCCN5CCOCC5)cc4)c3)cc21`: the inhibition in experiment [1] is 10%; in experiment [2] it was 45% and 46%; in experiment [3] it was 12%; in experiment [4], 3%.

`CCS(=O)(=O)c1ccc(OC)c(Nc2ncc(-c3cccc(F)c3)o2)c1`: the inhibition in experiment [5] is 2% and 17%; in experiment [1], 73%; in experiment [2], 0% and 2%; in experiment [3], 8% and 7%.

Regarding `Cc1cccc2c1NC(=O)/C2=N\Nc1ccc(S(N)(=O)=O)cc1`, the inhibition in experiment [1] is 4%; in experiment [2], 0% and 1%; in experiment [3], 3% and 0%; in experiment [4], -2% and -1%.

For the molecule `NC(=O)c1cc(-c2ccncc2)cc(-c2ccccc2)c1N`, the inhibition in experiment [1] was -1%; in experiment [2], 14%; in experiment [3] it was 10% and 13%; in experiment [4], -1% and 0%.

(Values after ChEMBL document CHEMBL2007661, “Compounds: GSK PKIS; Assays: UNC Frye lab” (2012).)
